Measurements from article PMC6297231 (Nature Communications, 2018).

Legend:
Assay in all cases: cells
HCC1954 = settings: Homo sapiens, HCC1954, 6 h, read-out: AZD5991 6h EC50
Summary of the method: (§1)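 Cells were seeded at 3000 cells/well in their respective growth media and treated with compound. Caspase-3/7 activation was read by Caspase-Glo 3/7 luminescence and viability by CellTiter-Glo; EC50 and GI50 came from dose–response curves. Caspase activation is expressed relative to a cell-kill control set at 100%.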

JJN3 = settings: Homo sapiens, JJN-3, 6 h, read-out: AZD5991 6h EC50
Summary of the method: as §1

Z-138 = settings: Homo sapiens, Z-138, 6 h, read-out: AZD5991 6h EC50
Summary of the method: as §1

BT549 = settings: Homo sapiens, BT-549, 6 h, read-out: AZD5991 6h EC50
Summary of the method: as §1

A101D = settings: Homo sapiens, 6 h, read-out: AZD5991 6h EC50
Summary of the method: as §1

H146 = settings: Homo sapiens, NCI-H146, 6 h, read-out: AZD5991 6h EC50
Summary of the method: as §1

MDAMB231 = settings: Homo sapiens, MDA-MB-231, 6 h, read-out: AZD5991 6h EC50
Summary of the method: as §1

Calu1 = settings: Homo sapiens, Calu-1, 6 h, read-out: AZD5991 6h EC50
Summary of the method: as §1

COLO829 = settings: Homo sapiens, COLO-829, 6 h, read-out: AZD5991 6h EC50
Summary of the method: as §1

MUTZ3 = settings: 6 h, read-out: AZD5991 6h EC50
Summary of the method: as §1

WSUDLCL2 = settings: Homo sapiens, WSUDLCL2, 6 h, read-out: AZD5991 6h EC50
Summary of the method: as §1

OCIAML2 = settings: Homo sapiens, OCI-AML2, 6 h, read-out: AZD5991 6h EC50
Summary of the method: as §1

GIST T1 = settings: Homo sapiens, GISTT1, 6 h, read-out: AZD5991 6h EC50
Summary of the method: as §1

Namalwa = settings: 6 h, read-out: AZD5991 6h EC50
Summary of the method: as §1

H2126 = settings: Homo sapiens, NCI-H2126, 6 h, read-out: AZD5991 6h EC50
Summary of the method: as §1

DU145 = settings: Homo sapiens, DU-145, 6 h, read-out: AZD5991 6h EC50
Summary of the method: as §1

ULA = settings: 6 h, read-out: AZD5991 6h EC50
Summary of the method: as §1

THP-1 = settings: Homo sapiens, THP-1, 6 h, read-out: AZD5991 6h EC50
Summary of the method: as §1

SKMEL3 = settings: Homo sapiens, SK-MEL3, 6 h, read-out: AZD5991 6h EC50
Summary of the method: as §1

H526 = settings: Homo sapiens, NCI-H526, 6 h, read-out: AZD5991 6h EC50
Summary of the method: as §1

DOHH2 = settings: Homo sapiens, DOHH-2, 6 h, read-out: AZD5991 6h EC50
Summary of the method: as §1

A2058 = settings: Homo sapiens, A2058, 6 h, read-out: AZD5991 6h EC50
Summary of the method: as §1

Ramos = settings: Homo sapiens, 6 h, read-out: AZD5991 6h EC50
Summary of the method: as §1

Sudhl6 = settings: Homo sapiens, SU-DHL-6, 6 h, read-out: AZD5991 6h EC50
Summary of the method: as §1

L363 = settings: Homo sapiens, L-363, 6 h, read-out: AZD5991 6h EC50
Summary of the method: as §1

HMCB = settings: Homo sapiens, 6 h, read-out: AZD5991 6h EC50
Summary of the method: as §1

MAVER1 = settings: Homo sapiens, Maver1, 6 h, read-out: AZD5991 6h EC50
Summary of the method: as §1

H460 = settings: Homo sapiens, NCI-H460, 6 h, read-out: AZD5991 6h EC50
Summary of the method: as §1

MWCL1 = settings: 6 h, read-out: AZD5991 6h EC50
Summary of the method: as §1

Sudhl10 = settings: Homo sapiens, SU-DHL10, 6 h, read-out: AZD5991 6h EC50
Summary of the method: as §1

H2122 = settings: Homo sapiens, NCI-H2122, 6 h, read-out: AZD5991 6h EC50
Summary of the method: as §1

ARH77 = settings: Homo sapiens, ARH-77, 6 h, read-out: AZD5991 6h EC50
Summary of the method: as §1

Sudhl5 = settings: Homo sapiens, SU-DHL-5, 6 h, read-out: AZD5991 6h EC50
Summary of the method: as §1

SKLU1 = settings: Homo sapiens, SK-LU-1, 6 h, read-out: AZD5991 6h EC50
Summary of the method: as §1

HCC827 = settings: Homo sapiens, HCC827, 6 h, read-out: AZD5991 6h EC50
Summary of the method: as §1

## Cc1c2c(nn1C)CSCc1cc(n(C)n1)CSc1cc(c3ccccc3c1)OCCCc1c(C(=O)O)n(C)c3c-2c(Cl)ccc13 (atropisomer, axis not shown; (Ra)) [(Ra)-7]
HCC1954
  EC50: 0.682 µM
JJN3
  EC50: 0.223 µM
Z-138
  EC50: > 30 µM
BT549
  EC50: 1.78 µM
A101D
  EC50: 1.52 µM
H146
  EC50: > 30 µM
MDAMB231
  EC50: > 30 µM
Calu1
  EC50: > 30 µM
COLO829
  EC50: > 30 µM
MUTZ3
  EC50: 0.026 µM
WSUDLCL2
  EC50: 0.159 µM
OCIAML2
  EC50: 0.472 µM
GIST T1
  EC50: > 30 µM
Namalwa
  EC50: 0.067 µM
H2126
  EC50: 0.157 µM
DU145
  EC50: > 30 µM
ULA
  EC50: 0.207 µM
THP-1
  EC50: 0.125 µM
SKMEL3
  EC50: > 30 µM
H526
  EC50: > 30 µM
DOHH2
  EC50: 0.136 µM
A2058
  EC50: > 30 µM
Ramos
  EC50: 0.028 µM
Sudhl6
  EC50: 0.056 µM
L363
  EC50: 0.09 µM
HMCB
  EC50: 25.9 µM
MAVER1
  EC50: 27.8 µM
H460
  EC50: > 30 µM
MWCL1
  EC50: 27.7 µM
Sudhl10
  EC50: 0.01 µM
H2122
  EC50: 15.2 µM
ARH77
  EC50: 23.9 µM
Sudhl5
  EC50: 0.019 µM
SKLU1
  EC50: > 30 µM
HCC827
  EC50: > 30 µM
